Measurements reported in patent publication US20240383922A1, “KRAS Modulating Compounds” (Gilead Sciences, Inc., priority 2023, published 2024).
Where two headings read alike, the source gives them in different places.

Key:
[1] = tested on: cellular pERK in ASPC-1 (KRAS G12D) cell-line; experiment: Cell based pERK assay (HTRF), ASPC-1; conditions: ASPC-1 (KRAS G12D) cells, 2 hours incubation
Protocol: (§1) Compounds were tested in a 384-well assay format for their ability to inhibit cellular pERK in Kuramochi (WT KRAS), MIA-PaCa-2 (KRAS-G12C), ASPC-1 (KRAS G12D), and NCI-H441 (KRAS-G12V) cell-lines. Compounds were serially diluted (1:3) in DMSO. On day −1, 80 uL of cells were plated per well in the 384 well tissue-culture plates (Greiner: Cat #781080) to seed 5000 cells per wells of AsPC-1 or 7500 cells of MIA-PaCa-2, NCI-H441, and Kuramochi cell lines in RPMI (Corning: Cat #10-040-CM) with 10% fetal bovine serum (FBS) (HyClone: Cat #SH30071-03) and 1× penicillin-streptomycin-glutamate (PSG) (Corning: Cat #30-009-CI) for […] and Kuramochi cell lines and DMEM (Corning: Cat #15-018-CM) with […] and 1× PSG for MKA-PaCa-2 cell line. The plates were then incubated overnight at 37° C. and 5% CO2. On day 0, 400 nL of compound/well was added into the cell plates and mixed 5 times by pipetting using a Beckmann Biomek FX. The cell plates were then incubated for 2 hours at 37° C. and 5% CO2. HTRF Advanced Phospho-ERK1/2 ([…]) Detection Kits (PerkinElmer: Cat #64AERPEG) were used to prepare the lysis and detection solution according to manufacturer protocol. Following the 2 hour incubation, 70 μL of medium was aspirated from the plates and 10 uL of lysis and detection solution was added to the plates using a Biotek EL406 washer and dispenser. Plates were sealed and stored overnight at room temperature. HTRF ratio (665 nm/615 nm) was read by Envision multimode reader (PerkinElmer) the next day. The TR-FRET ratios were normalized to a positive (saturating concentration of known inhibitor) and negative (DMSO) control and plotted against the log of compound concentration. IC50 values were defined as the compound concentration that causes a […] in normalized signal and were calculated using a sigmoidal dose-response model to generate curve fits.

[2] = tested on: cellular pERK in MIA-PaCa-2 (KRAS-G12C) cell-line; experiment: Cell based pERK assay (HTRF), MIA-PaCa-2; conditions: MIA-PaCa-2 (KRAS-G12C) cells, 2 hours incubation, read-out: MIAPaCa2 pERK EC50
Protocol: as §1

[3] = tested on: cellular pERK in NCI-H441 (KRAS-G12V) cell-line; experiment: Cell based pERK assay (HTRF), NCI-H441; conditions: NCI-H441 (KRAS-G12V) cells, 2 hours incubation
Protocol: as §1

[4] = tested on: cellular pERK in Kuramochi (WT KRAS) cell-line; experiment: Cell based pERK assay (HTRF), Kuramochi; conditions: Kuramochi (WT KRAS) cells, 2 hours incubation
Protocol: as §1

Row | SMILES | EC50 ([1]; Homo sapiens, ASPC1) [nM] | EC50 ([2]; Homo sapiens) [nM] | EC50 ([3]; Homo sapiens) [nM] | EC50 [4] [nM] | EC50 ([1]; read-out: AsPC1 pERK EC50) [nM] | EC50 [2] [nM] | EC50 [3] [nM]
1 | C#Cc1c(F)ccc2cc(O)cc(-c3nc4c5c(nc(OC[C@@]67CCCN6C[C@H](F)C7)nc5c3F)N3CCCOC[C@@H]3C[C@@H]4F)c12 [Example 6-27] | 97.1 | 17.4 | 58.7 | 28.8 |  |  | 
2 | C#Cc1c(F)ccc2cc(O)cc(-c3nc4c5c(nc(OC[C@@]67CCCN6C[C@H](F)C7)nc5c3F)N3CCC(O)CC[C@@H]3CC4)c12 (stereo partly shown) [Example 6-29] | 741 | 23.8 | 452 | 46.3 |  |  | 
3 | C#Cc1c(F)ccc2cc(N)cc(-c3nc4c5c(nc(OC[C@@]67CCCN6[C@H](CF)CC7)nc5c3F)N3CCCOC[C@@H]3CC4)c12 [Example 7-2] | 25.8 | 4.01 | 6.23 | 3.44 |  |  | 
4 | C#Cc1c(F)ccc2cc(N)cc(-c3nc4c5c(nc(OCC67CCCN6CCC7)nc5c3F)N3CCCOC[C@@H]3CC4)c12 [Example 7-3] | 118 | 9.14 | 20 | 6.12 |  |  | 
5 | C#Cc1c(F)ccc2cc(N)cc(-c3nc4c5c(nc(OC[C@@]67CCCN6C[C@H](F)C7)nc5c3F)N3CCCOC[C@H]3C=C4C)c12 [Example 7-8] | 125 | 72.3 | > 1000 | 41.1 |  |  | 
6 | C#Cc1c(F)ccc2cc(N)cc(-c3nc4c5c(nc(OC[C@@]67CCCN6C[C@H](F)C7)nc5c3F)N3CCCOC[C@@H]3C[C@H]4C)c12 [Example 7-9] | 54.9 | 9.04 | 16.9 | 7.23 |  |  | 
7 | C#Cc1c(F)ccc2cc(N)cc(-c3nc4c5c(nc(OC[C@@]67CCCN6C[C@H](F)C7)nc5c3F)N3CCCOC[C@@H]3C[C@@H]4C)c12 [Example 7-10] | > 697 | 218 | > 535 | 208 |  |  | 
8 | CCc1c(F)ccc2cc(O)cc(-c3nc4c5c(nc(OC[C@@]67CCCN6C[C@H](F)C7)nc5c3F)N3CCOCCC3CC4)c12 (stereo partly drawn) [Example 8-1, 5-ethyl-6-fluoro-4-(1-fluoro-12-(((2R,7a5)-2-fluorotetrahydro-1H-pyrrolizin-7a(5H)-yl)methoxy)-5,5a,6,7,9,10-hexahydro-4H-8-oxa-3,10a,11,13-tetraazanaphtho[1,8-ab]heptalen-2-yl)naphthalen-2-ol] |  |  |  | 3.19 | 42.4 | 7.72 | 13
9 | CCc1c(F)ccc2cc(O)cc(-c3nc4c5c(nc(OC[C@@]67CCCN6C[C@H](F)C7)nc5c3F)N3CCCOCC3CC4)c12 (stereo partly shown) [Example 8-2] | 23.6 | 13.8 | 21 | 8.04 |  |  | 
10 | CCc1c(F)ccc2cc(O)cc(-c3nc4c5c(nc(OC[C@@]67CCCN6C[C@H](F)C7)nc5c3F)N3CCCOC[C@@H]3CC4)c12 [Example 8-3] | 9.88 | 1.57 | 3.8 | 1.91 |  |  | 
11 | C#Cc1c(F)ccc2cc(O)cc(-c3nc4c5c(nc(OC[C@@]67CCCN6C[C@H](F)C7)nc5c3F)N3CCCCC[C@H]3CC4)c12 [Example 12-1, 5-ethynyl-6-fluoro-4-((S)-1-fluoro-12-(((2R,7aS)-2-fluorotetrahydro-1H-pyrrolizin-7a(5H)-yl)methoxy)-4,5,5a,6,7,8,9,10-octahydro-3,10a,11,13-tetraazanaphtho[1,8-ab]heptalen-2-yl)naphthalen-2-ol] | 931 | 682 | 916 | 401 |  |  | 
12 | C#Cc1c(F)ccc2cc(O)cc(-c3nc4c5c(nc(OC[C@@]67CCCN6C[C@H](F)C7)nc5c3F)N3CCCCC3(C)CC4)c12 (stereo partly drawn) [Example 13-1, 5-ethynyl-6-fluoro-4-(1-fluoro-11-(((2R,7aS)-2-fluorotetrahydro-11H-pyrrolizin-7a(5H)-yl)methoxy)-5a-methyl-5,5a,6,7,8,9-hexahydro-4H-3,9a,10,12-tetraazabenzo[4,5]cyclohepta[1,2,3-de]naphthalen-2-yl)naphthalen-2-ol] |  |  |  | 117 | > 1000 | 319 | 380
13 | CCc1c(F)ccc2cc(O)cc(-c3nc4c5c(nc(OC[C@@]67CCCN6C[C@H](F)C7)nc5c3F)N3CCCCC3(C)CC4)c12 (stereo partly drawn) [Example 14-1, 5-ethyl-6-fluoro-4-(1-fluoro-11-(((2R,7aS)-2-fluorotetrahydro-1H-pyrrolizin-7a(5H)-yl)methoxy)-5a-methyl-5,5a,6,7,8,9-hexahydro-4H-3,9a,10,12-tetraazabenzo[4,5]cyclohepta[1,2,3-de]naphthalen-2-yl)naphthalen-2-ol] |  |  |  | 517 | > 1000 | > 1000 | > 1000
